Read-outs that look alike come from different tables or passages of the source.
Columns and labels:
Format in all cases: cell-based
[1] = tested on: E. coli B-89; assay: MIC by agar dilution (CLSI) against highly resistant ESBL strain; settings: E. coli B-89
Experimental: (§1) The results on activity of cefepime and other cephalosporin antibacterial agents in combination with tazobactam against highly resistant ESBL strains are given Table 1. In a typical study, overnight grown bacterial cultures were diluted appropriately and inoculated on the agar media containing doubling dilutions of the antibiotic. Observation for growth or no growth was performed after 16-20 h of incubation at 35±2° C. in ambient air. The overall procedure was performed as per Clinical and Laboratory Standards Institute (CLSI) recommendations. This experimental was followed for Examples 2-4 and 6 below (Table 2-4 and 7).

[2] = tested on: E. coli M50; assay: as above
Experimental: as §1

[3] = tested on: E. coli 7MP; assay: as above; settings: E. coli 7MP
Experimental: as §1

[4] = tested on: E. cloacae M-20; assay: as above; settings: E. cloacae M-20
Experimental: as §1

[5] = tested on: K. pneumoniae M150; assay: as above; settings: Klebsiella pneumoniae, M150, K. pneumoniae M150, read-out: MIC
Experimental: as §1

[6] = tested on: E. coli B-89; assay: Quantitative drug diffusion assay (disc, zone of inhibition, CLSI); set-up: key to Interpretation of zone as per CLSI recommendations: R: Resistant; I: Intermediate; S: Sensitive (Interpretation as per CLSI recommendations, 2010)
Description: (§2) Activity of cefepime in combination with tazobactam and various penicillins in combination with respective ESBL inhibitors was also investigated against highly resistant ESBL strains in quantitative drug diffusion assay performed as per CLSI recommendations (Clinical and Laboratory Standards Institute (CLSI), performance Standards for Antimicrobial Susceptibility Testing, 20th Informational Supplement, M 100-S20, Volume 30, No. 1, 2010).
(§3) In a typical study, overnight grown bacterial cultures after appropriate dilution were seed inoculated in the molten, cooled agar media and plates poured. Antibiotics containing 6 mm diameter discs were place on the top of the agar surface. Zone of inhibition based observation was performed after 16-18 h of incubation at 35±2° C. in ambient air. The overall procedure was performed as per CLSI recommendations (Table 5 and 6). These assays are routinely used in determining possibility of treating a particular infection using antibiotic and/or their combinations. For example, in case of treating an infection caused by E. coli (M138) using Augmentin® [commercially available combination: Amoxicillin (500 mg)+Clavulanic acid (125 mg)], the zone inhibition values need to be in the sensitive (S) range.

[7] = tested on: E. coli M50; assay: as above; set-up: key to Interpretation of zone as per CLSI recommendations: R: Resistant; I: Intermediate; S: Sensitive (Interpretation as per CLSI recommendations, 2010)
Description: as §2, §3

[8] = tested on: E. coli 7MP; assay: as above; set-up: key to Interpretation of zone as per CLSI recommendations: R: Resistant; I: Intermediate; S: Sensitive (Interpretation as per CLSI recommendations, 2010)
Description: as §2, §3

[9] = tested on: E. coli B-123; assay: as above; set-up: key to Interpretation of zone as per CLSI recommendations: R: Resistant; I: Intermediate; S: Sensitive (Interpretation as per CLSI recommendations, 2010)
Description: as §2, §3

[10] = tested on: E. coli S-112; assay: as above; set-up: key to Interpretation of zone as per CLSI recommendations: R: Resistant; I: Intermediate; S: Sensitive (Interpretation as per CLSI recommendations, 2010)
Description: as §2, §3

[11] = tested on: E. coli M-138; assay: as above; set-up: key to Interpretation of zone as per CLSI recommendations: R: Resistant; I: Intermediate; S: Sensitive (Interpretation as per CLSI recommendations, 2010)
Description: as §2, §3

[12] = ESBL inhibitor 0 mcg (antibiotic alone)

MIC ([1]; with Tazobactam 4 mcg): >64 µg/mL | MIC ([1]; with Tazobactam 8 mcg): >64 µg/mL | MIC ([1]; Escherichia coli, B89, 20 h, Tazobactam 0 mcg (antibiotic alone), read-out: MIC): > 128 µg/mL | MIC ([2]; Escherichia coli, 20 h, Tazobactam 0 mcg (antibiotic alone), read-out: MIC): > 128 µg/mL | MIC ([2]; with Tazobactam 4 mcg): >64 µg/mL | MIC ([2]; with Tazobactam 8 mcg): >64 µg/mL | MIC ([3]; with Tazobactam 4 mcg): >64 µg/mL | MIC ([3]; with Tazobactam 8 mcg): >64 µg/mL | MIC ([3]; Escherichia coli, 7MP, 20 h, Tazobactam 0 mcg (antibiotic alone), read-out: MIC): > 128 µg/mL | MIC ([4]; with Tazobactam 4 mcg): >64 µg/mL | MIC ([4]; with Tazobactam 8 mcg): >64 µg/mL | MIC ([4]; Enterobacter cloacae, M20, 20 h, Tazobactam 0 mcg (antibiotic alone), read-out: MIC): > 128 µg/mL | MIC ([5]; Tazobactam 0 mcg (antibiotic alone)): > 128 µg/mL | MIC ([5]; with Tazobactam 4 mcg): > 64 µg/mL | MIC ([5]; with Tazobactam 8 mcg): > 64 µg/mL
Structure (SMILES): CC1(C)S[C@@H]2[C@H](NC(=O)[C@H](N)c3ccccc3)C(=O)N2[C@H]1C(=O)O [Ampicillin]
Zone of Inhibition [6, 12]: Nil | Interpretation of zone as per CLSI recommendations ([6]; Table 5, ESBL inhibitor 0 mcg): (R) | Interpretation of zone as per CLSI recommendations ([6]; Table 5, with Sulbactam 10 mcg): (R) | Interpretation of zone as per CLSI recommendations ([6]; Table 6, ESBL inhibitor 0 mcg): (R) | Interpretation of zone as per CLSI recommendations ([6]; Table 6, with Sulbactam 10 mcg): (R) | Zone of Inhibition ([6]; with Sulbactam 10 mcg): Nil | Zone of Inhibition [7, 12]: Nil | Interpretation of zone as per CLSI recommendations ([7]; Table 5, ESBL inhibitor 0 mcg): (R) | Interpretation of zone as per CLSI recommendations ([7]; Table 5, with Sulbactam 10 mcg): (R) | Interpretation of zone as per CLSI recommendations ([7]; Table 6, ESBL inhibitor 0 mcg): (R) | Interpretation of zone as per CLSI recommendations ([7]; Table 6, with Sulbactam 10 mcg): (R) | Zone of Inhibition ([7]; with Sulbactam 10 mcg): Nil | Zone of Inhibition [8, 12]: Nil | Interpretation of zone as per CLSI recommendations ([8]; Table 5, ESBL inhibitor 0 mcg): (R) | Interpretation of zone as per CLSI recommendations ([8]; Table 5, with Sulbactam 10 mcg): (R) | Interpretation of zone as per CLSI recommendations ([8]; Table 6, ESBL inhibitor 0 mcg): (R) | Interpretation of zone as per CLSI recommendations ([8]; Table 6, with Sulbactam 10 mcg): (R) | Zone of Inhibition ([8]; with Sulbactam 10 mcg): Nil | Zone of Inhibition [9, 12]: Nil | Interpretation of zone as per CLSI recommendations ([9]; Table 5, ESBL inhibitor 0 mcg): (R) | Interpretation of zone as per CLSI recommendations ([9]; Table 5, with Sulbactam 10 mcg): (R) | Interpretation of zone as per CLSI recommendations ([9]; Table 6, ESBL inhibitor 0 mcg): (R) | Interpretation of zone as per CLSI recommendations ([9]; Table 6, with Sulbactam 10 mcg): (R) | Zone of Inhibition ([9]; with Sulbactam 10 mcg): Nil | Zone of Inhibition [10, 12]: Nil | Interpretation of zone as per CLSI recommendations ([10]; Table 5, ESBL inhibitor 0 mcg): (R) | Interpretation of zone as per CLSI recommendations ([10]; Table 5, with Sulbactam 10 mcg): (R) | Interpretation of zone as per CLSI recommendations ([10]; Table 6, ESBL inhibitor 0 mcg): (R) | Interpretation of zone as per CLSI recommendations ([10]; Table 6, with Sulbactam 10 mcg): (R) | Zone of Inhibition ([10]; with Sulbactam 10 mcg): Nil | Zone of Inhibition [11, 12]: Nil | Interpretation of zone as per CLSI recommendations ([11]; Table 5, ESBL inhibitor 0 mcg): (R) | Interpretation of zone as per CLSI recommendations ([11]; Table 5, with Sulbactam 10 mcg): (R) | Interpretation of zone as per CLSI recommendations ([11]; Table 6, ESBL inhibitor 0 mcg): (R) | Interpretation of zone as per CLSI recommendations ([11]; Table 6, with Sulbactam 10 mcg): (R) | Zone of Inhibition ([11]; with Sulbactam 10 mcg): Nil

From US20160175318A1, “COMPOSITIONS COMPRISING ANTIBACTERIAL AGENT AND TAZOBACTAM” (WOCKHARDT LIMITED, priority 2013, published 2016)
